Data as given in PubChem BioAssay (NCI).
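Test compounds were applied to cells in 96-well plates for 48 hours at 5 doses. Abbreviation: GI50, concentration required for 50% inhibition of growth. TGI: total growth inhibition.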

What was measured:
Experiment in all cases: NCI-60 cell line screen, 48 h
HCT-15 colon = test system: HCT-15 colon
MDA-MB-468 breast = test system: MDA-MB-468 breast
SF-295 CNS = test system: SF-295 CNS
MDA-MB-435 = test system: MDA-MB-435
LOX IMVI melanoma = test system: LOX IMVI melanoma
786-0 renal = test system: 786-0 renal
TK-10 renal = test system: TK-10 renal
U251 CNS = test system: U251 CNS
SK-MEL-28 melanoma = test system: SK-MEL-28 melanoma
SF-268 CNS = test system: SF-268 CNS
NCI-H460 lung = test system: NCI-H460 lung
SK-OV-3 ovarian = test system: SK-OV-3 ovarian
UO-31 renal = test system: UO-31 renal
HCT-116 colon = test system: HCT-116 colon
SN12C renal = test system: SN12C renal
CAKI-1 renal = test system: CAKI-1 renal
OVCAR-8 ovarian = test system: OVCAR-8 ovarian
HOP-92 NSCLC = test system: HOP-92 NSCLC
MDA-MB-231 breast = test system: MDA-MB-231 breast
DU-145 prostate = test system: DU-145 prostate
SNB-75 CNS = test system: SNB-75 CNS
OVCAR-4 ovarian = test system: OVCAR-4 ovarian
OVCAR-5 ovarian = test system: OVCAR-5 ovarian
HS 578T breast = test system: HS 578T breast
MCF7 breast = test system: MCF7 breast
NCI-H522 lung = test system: NCI-H522 lung
NCI-H23 lung = test system: NCI-H23 lung
A549 NSCLC = test system: A549 NSCLC
EKVX NSCLC = test system: EKVX NSCLC
K-562 leukemia = test system: K-562 leukemia
SR leukemia = test system: SR leukemia
CCRF-CEM leukemia = test system: CCRF-CEM leukemia
HL-60(TB) leukemia = test system: HL-60(TB) leukemia
UACC-62 melanoma = test system: UACC-62 melanoma
M14 melanoma = test system: M14 melanoma
ACHN renal = test system: ACHN renal
KM12 colon = test system: KM12 colon
PC-3 prostate = test system: PC-3 prostate
NCI-H226 lung = test system: NCI-H226 lung
T-47D breast = test system: T-47D breast
MALME-3M melanoma = test system: MALME-3M melanoma
RXF 393 renal = test system: RXF 393 renal
MOLT-4 leukemia = test system: MOLT-4 leukemia
HOP-62 NSCLC = test system: HOP-62 NSCLC
NCI/ADR-RES ovarian = test system: NCI/ADR-RES ovarian
IGROV1 ovarian = test system: IGROV1 ovarian
COLO 205 colon = test system: COLO 205 colon
UACC-257 melanoma = test system: UACC-257 melanoma
SK-MEL-2 melanoma = test system: SK-MEL-2 melanoma
HT29 colon = test system: HT29 colon
A498 renal = test system: A498 renal
RPMI-8226 leukemia = test system: RPMI-8226 leukemia
SW-620 colon = test system: SW-620 colon
HCC-2998 colon = test system: HCC-2998 colon
OVCAR-3 ovarian = test system: OVCAR-3 ovarian
SK-MEL-5 melanoma = test system: SK-MEL-5 melanoma
SNB-19 CNS = test system: SNB-19 CNS
BT-549 breast = test system: BT-549 breast
SF-539 CNS = test system: SF-539 CNS

`CCOc1ccc(/C=N/NC(=O)Cn2nc(Cc3ccc(OC)cc3)c3onc(C)c3c2=O)cc1` was tested, and the GI50 (HCT-15 colon) was 15.1 µM, the TGI (HCT-15 colon) was over 100 µM and the GI50 (MDA-MB-468 breast) was 9.93 µM. It also gave a TGI (MDA-MB-468 breast) of 29.3 µM, a GI50 (SF-295 CNS) of 6.77 µM and a TGI (SF-295 CNS) of 21.8 µM. The GI50 (MDA-MB-435) was 25.7 µM, the TGI (MDA-MB-435) was over 100 µM and the GI50 (LOX IMVI melanoma) was 10.9 µM. The TGI (LOX IMVI melanoma) was 27.9 µM, the GI50 (786-0 renal) was 2.99 µM and the TGI (786-0 renal) was 10.4 µM. It also gave a GI50 (TK-10 renal) of 11 µM, a TGI (TK-10 renal) of 28.8 µM and a GI50 (U251 CNS) of 3.96 µM. The TGI (U251 CNS) was 17.1 µM, the GI50 (SK-MEL-28 melanoma) was 10.4 µM and the TGI (SK-MEL-28 melanoma) was 24.8 µM. It also gave a GI50 (SF-268 CNS) of 10.5 µM, a TGI (SF-268 CNS) of 27.4 µM and a GI50 (NCI-H460 lung) of 5.32 µM. The TGI (NCI-H460 lung) was 19.2 µM, the GI50 (SK-OV-3 ovarian) was 4.12 µM and the TGI (SK-OV-3 ovarian) was 14.5 µM. The GI50 (UO-31 renal) was 4.08 µM, the TGI (UO-31 renal) was 19.5 µM and the GI50 (HCT-116 colon) was 3.39 µM. The TGI (HCT-116 colon) was 11.6 µM, the GI50 (SN12C renal) was 3.42 µM and the TGI (SN12C renal) was 13.3 µM. It also gave a GI50 (CAKI-1 renal) of 3.8 µM, a TGI (CAKI-1 renal) of 14.8 µM and a GI50 (OVCAR-8 ovarian) of 11.2 µM. It also gave a TGI (OVCAR-8 ovarian) of 42.1 µM, a GI50 (HOP-92 NSCLC) of 3.61 µM and a TGI (HOP-92 NSCLC) of 16.5 µM. The GI50 (MDA-MB-231 breast) was 9.23 µM, the TGI (MDA-MB-231 breast) was 27.9 µM and the GI50 (DU-145 prostate) was 9.35 µM. The TGI (DU-145 prostate) was 26.9 µM, the GI50 (SNB-75 CNS) was 1.64 µM and the TGI (SNB-75 CNS) was 3.42 µM. The GI50 (OVCAR-4 ovarian) was 10.8 µM, the TGI (OVCAR-4 ovarian) was 25.3 µM and the GI50 (OVCAR-5 ovarian) was 14.4 µM. The TGI (OVCAR-5 ovarian) was 51.8 µM, the GI50 (HS 578T breast) was 4.26 µM and the TGI (HS 578T breast) was 29 µM. For the same compound, the GI50 (MCF7 breast) was 4.37 µM, the TGI (MCF7 breast) was 23.9 µM and the GI50 (NCI-H522 lung) was 14.5 µM. For the same compound, the TGI (NCI-H522 lung) was 37.7 µM, the GI50 (NCI-H23 lung) was 10.7 µM and the TGI (NCI-H23 lung) was 33.1 µM. For the same compound, the GI50 (A549 NSCLC) was 3.43 µM, the TGI (A549 NSCLC) was 13.1 µM and the GI50 (EKVX NSCLC) was 10.8 µM. The TGI (EKVX NSCLC) was 30.3 µM, the GI50 (K-562 leukemia) was 37.6 µM and the TGI (K-562 leukemia) was over 100 µM. It also gave a GI50 (SR leukemia) of 40.3 µM, a TGI (SR leukemia) of over 100 µM and a GI50 (CCRF-CEM leukemia) of 33.4 µM. The TGI (CCRF-CEM leukemia) was over 100 µM, the GI50 (HL-60(TB) leukemia) was 51.1 µM and the TGI (HL-60(TB) leukemia) was over 100 µM. The GI50 (UACC-62 melanoma) was 13.2 µM, the TGI (UACC-62 melanoma) was 32.7 µM and the GI50 (M14 melanoma) was 13.7 µM. For the same compound, the TGI (M14 melanoma) was 75.1 µM, the GI50 (ACHN renal) was 3.33 µM and the TGI (ACHN renal) was 11 µM. It also gave a GI50 (KM12 colon) of 41.8 µM, a TGI (KM12 colon) of over 100 µM and a GI50 (PC-3 prostate) of 12.4 µM. The TGI (PC-3 prostate) was 84.8 µM, the GI50 (NCI-H226 lung) was 3.43 µM and the TGI (NCI-H226 lung) was 15.9 µM. It also gave a GI50 (T-47D breast) of 3.46 µM, a TGI (T-47D breast) of 22.3 µM and a GI50 (MALME-3M melanoma) of 4.86 µM. For the same compound, the TGI (MALME-3M melanoma) was 19.5 µM, the GI50 (RXF 393 renal) was 2.71 µM and the TGI (RXF 393 renal) was 6.38 µM. The GI50 (MOLT-4 leukemia) was 29.8 µM, the TGI (MOLT-4 leukemia) was over 100 µM and the GI50 (HOP-62 NSCLC) was 4.8 µM. For the same compound, the TGI (HOP-62 NSCLC) was 18.1 µM, the GI50 (NCI/ADR-RES ovarian) was 5.35 µM and the TGI (NCI/ADR-RES ovarian) was 19.7 µM. It also gave a GI50 (IGROV1 ovarian) of 15.3 µM, a TGI (IGROV1 ovarian) of 43 µM and a GI50 (COLO 205 colon) of 40 µM. It also gave a TGI (COLO 205 colon) of over 100 µM, a GI50 (UACC-257 melanoma) of 13.3 µM and a TGI (UACC-257 melanoma) of 60.9 µM. For the same compound, the GI50 (SK-MEL-2 melanoma) was 18.4 µM, the TGI (SK-MEL-2 melanoma) was 41 µM and the GI50 (HT29 colon) was 12.3 µM. For the same compound, the TGI (HT29 colon) was 32.9 µM, the GI50 (A498 renal) was 3.83 µM and the TGI (A498 renal) was 13.7 µM. The GI50 (RPMI-8226 leukemia) was 78.2 µM, the TGI (RPMI-8226 leukemia) was over 100 µM and the GI50 (SW-620 colon) was 7.37 µM. For the same compound, the TGI (SW-620 colon) was 36.5 µM, the GI50 (HCC-2998 colon) was 11 µM and the TGI (HCC-2998 colon) was 27.4 µM. The GI50 (OVCAR-3 ovarian) was 3.2 µM, the TGI (OVCAR-3 ovarian) was 10.4 µM and the GI50 (SK-MEL-5 melanoma) was 39.7 µM. The TGI (SK-MEL-5 melanoma) was over 100 µM, the GI50 (SNB-19 CNS) was 12.2 µM and the TGI (SNB-19 CNS) was 32.4 µM. It also gave a GI50 (BT-549 breast) of 10.3 µM, a TGI (BT-549 breast) of 27.1 µM and a GI50 (SF-539 CNS) of 7.35 µM. For the same compound, the TGI (SF-539 CNS) was 20 µM.
